Laboratory results as given in publication PMC2680759, “Non-Invasive Molecular Imaging of Fibrosis Using a Collagen-Targeted Peptidomimetic of the Platelet Collagen Receptor Glycoprotein VI” (PLoS ONE, 2009).
Bridges are numbered along the chain shown (N, C = ends). Where no end group is shown, it is not given here.

Columns and labels:
Conditions in all cases: biotin-peptide 50 µg/mL, microtitration plate, n = 3
type III collagen = molecular target: T1, type III collagen (Homo sapiens, UniProt P02461); test: Solid phase assay, type III collagen; format: binding
T1 sequence (P02461 154-1221 limits assumed): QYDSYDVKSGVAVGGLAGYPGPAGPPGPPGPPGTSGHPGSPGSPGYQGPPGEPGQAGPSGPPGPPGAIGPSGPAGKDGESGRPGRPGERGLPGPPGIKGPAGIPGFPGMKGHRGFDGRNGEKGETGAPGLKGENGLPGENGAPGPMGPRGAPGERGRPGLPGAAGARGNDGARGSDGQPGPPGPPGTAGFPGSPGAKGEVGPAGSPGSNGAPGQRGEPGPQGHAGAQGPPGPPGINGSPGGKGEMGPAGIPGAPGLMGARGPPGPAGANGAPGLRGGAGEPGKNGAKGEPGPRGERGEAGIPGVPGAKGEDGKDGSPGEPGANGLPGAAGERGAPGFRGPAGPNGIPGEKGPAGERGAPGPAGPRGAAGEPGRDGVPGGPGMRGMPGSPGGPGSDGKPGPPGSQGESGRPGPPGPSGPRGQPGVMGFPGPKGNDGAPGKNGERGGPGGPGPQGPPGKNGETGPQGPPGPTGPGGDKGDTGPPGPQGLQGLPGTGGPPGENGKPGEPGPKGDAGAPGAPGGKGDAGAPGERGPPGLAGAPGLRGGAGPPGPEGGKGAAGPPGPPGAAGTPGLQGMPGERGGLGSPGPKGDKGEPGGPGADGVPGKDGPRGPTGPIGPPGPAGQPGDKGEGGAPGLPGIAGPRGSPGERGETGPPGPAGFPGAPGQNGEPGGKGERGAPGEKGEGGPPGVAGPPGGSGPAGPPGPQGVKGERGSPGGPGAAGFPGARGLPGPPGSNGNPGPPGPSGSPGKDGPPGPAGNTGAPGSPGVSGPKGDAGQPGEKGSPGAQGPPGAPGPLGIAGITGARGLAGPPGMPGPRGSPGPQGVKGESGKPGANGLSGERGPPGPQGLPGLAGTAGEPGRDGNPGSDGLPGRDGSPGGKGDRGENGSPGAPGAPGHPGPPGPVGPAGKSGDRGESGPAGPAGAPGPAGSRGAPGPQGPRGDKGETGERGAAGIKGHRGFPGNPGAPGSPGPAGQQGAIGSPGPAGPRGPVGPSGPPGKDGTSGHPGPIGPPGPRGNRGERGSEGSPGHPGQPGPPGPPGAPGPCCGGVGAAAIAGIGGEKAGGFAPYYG

[1] = system: collagen related peptide (CRP); test: Solid phase assay, collagen related peptide; format: binding
Procedure: (§1) Biotin-peptides (50 µg.mL^−1) were incubated on microtitration wells, coated with 1 µg of type-I collagen, convulxin, collagen related peptides, bovine fibrinogen, human fibronectin, rat vitronectin, murine laminin or bovine serum albumin. Bound peptides were detected using HRP-coupled extravidin and the HRP substrate O-phenyl-dianisidine.

fibrinogen = molecular target: T2, fibrinogen (Bos taurus, UniProt P02672+P02676+P12799); test: Solid phase assay, fibrinogen; format: binding, bovine
T2 sequence (P02672 20-615): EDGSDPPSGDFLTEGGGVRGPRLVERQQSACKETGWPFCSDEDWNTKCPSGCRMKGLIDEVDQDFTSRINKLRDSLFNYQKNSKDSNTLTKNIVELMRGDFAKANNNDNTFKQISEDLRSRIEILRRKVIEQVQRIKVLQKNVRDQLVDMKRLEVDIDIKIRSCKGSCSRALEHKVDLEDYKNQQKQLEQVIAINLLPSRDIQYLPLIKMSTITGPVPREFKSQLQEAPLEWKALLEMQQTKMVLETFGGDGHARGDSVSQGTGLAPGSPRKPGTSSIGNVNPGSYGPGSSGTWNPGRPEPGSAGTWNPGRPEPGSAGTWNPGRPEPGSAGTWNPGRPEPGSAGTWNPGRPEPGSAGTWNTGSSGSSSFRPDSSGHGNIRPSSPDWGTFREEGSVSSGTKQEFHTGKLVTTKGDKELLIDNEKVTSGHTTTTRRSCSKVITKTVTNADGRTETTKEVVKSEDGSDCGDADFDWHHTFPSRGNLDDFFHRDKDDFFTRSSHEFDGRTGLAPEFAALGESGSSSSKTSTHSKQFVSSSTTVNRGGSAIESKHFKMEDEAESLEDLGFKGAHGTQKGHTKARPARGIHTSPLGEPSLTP
T2 sequence (P02676 1-468): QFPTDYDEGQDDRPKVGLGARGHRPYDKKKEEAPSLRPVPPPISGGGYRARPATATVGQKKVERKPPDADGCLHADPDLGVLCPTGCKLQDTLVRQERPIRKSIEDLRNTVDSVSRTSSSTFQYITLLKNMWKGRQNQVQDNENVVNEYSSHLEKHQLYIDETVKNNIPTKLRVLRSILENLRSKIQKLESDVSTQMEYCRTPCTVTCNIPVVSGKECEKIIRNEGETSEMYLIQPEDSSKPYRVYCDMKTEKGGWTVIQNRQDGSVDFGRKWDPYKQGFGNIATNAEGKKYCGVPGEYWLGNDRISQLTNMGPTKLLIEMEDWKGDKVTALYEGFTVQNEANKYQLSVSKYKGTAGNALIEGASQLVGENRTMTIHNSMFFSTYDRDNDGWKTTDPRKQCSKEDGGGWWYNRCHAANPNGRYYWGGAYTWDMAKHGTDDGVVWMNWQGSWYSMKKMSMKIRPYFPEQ
T2 sequence (P12799 25-444): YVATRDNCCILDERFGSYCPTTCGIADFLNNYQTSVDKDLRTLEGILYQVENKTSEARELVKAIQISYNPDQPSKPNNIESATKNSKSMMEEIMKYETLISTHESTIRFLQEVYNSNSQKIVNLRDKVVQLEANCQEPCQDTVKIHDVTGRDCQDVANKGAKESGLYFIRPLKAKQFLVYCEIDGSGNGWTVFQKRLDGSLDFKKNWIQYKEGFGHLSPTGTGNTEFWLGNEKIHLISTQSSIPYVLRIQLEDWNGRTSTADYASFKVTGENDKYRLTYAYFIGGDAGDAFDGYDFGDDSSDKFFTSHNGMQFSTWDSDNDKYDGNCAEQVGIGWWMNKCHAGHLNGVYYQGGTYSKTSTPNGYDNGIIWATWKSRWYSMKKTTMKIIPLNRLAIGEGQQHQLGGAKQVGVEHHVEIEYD
Procedure: as §1

fibronectin = fibronectin (Homo sapiens, UniProt P02751); test: Solid phase assay, fibronectin; format: binding
Procedure: as §1

laminin = laminin (Mus musculus, UniProt P02468+P02469+P19137); test: Solid phase assay, laminin; format: binding, murine
Procedure: as §1

fibronectin, sequence (P02751 32-2477): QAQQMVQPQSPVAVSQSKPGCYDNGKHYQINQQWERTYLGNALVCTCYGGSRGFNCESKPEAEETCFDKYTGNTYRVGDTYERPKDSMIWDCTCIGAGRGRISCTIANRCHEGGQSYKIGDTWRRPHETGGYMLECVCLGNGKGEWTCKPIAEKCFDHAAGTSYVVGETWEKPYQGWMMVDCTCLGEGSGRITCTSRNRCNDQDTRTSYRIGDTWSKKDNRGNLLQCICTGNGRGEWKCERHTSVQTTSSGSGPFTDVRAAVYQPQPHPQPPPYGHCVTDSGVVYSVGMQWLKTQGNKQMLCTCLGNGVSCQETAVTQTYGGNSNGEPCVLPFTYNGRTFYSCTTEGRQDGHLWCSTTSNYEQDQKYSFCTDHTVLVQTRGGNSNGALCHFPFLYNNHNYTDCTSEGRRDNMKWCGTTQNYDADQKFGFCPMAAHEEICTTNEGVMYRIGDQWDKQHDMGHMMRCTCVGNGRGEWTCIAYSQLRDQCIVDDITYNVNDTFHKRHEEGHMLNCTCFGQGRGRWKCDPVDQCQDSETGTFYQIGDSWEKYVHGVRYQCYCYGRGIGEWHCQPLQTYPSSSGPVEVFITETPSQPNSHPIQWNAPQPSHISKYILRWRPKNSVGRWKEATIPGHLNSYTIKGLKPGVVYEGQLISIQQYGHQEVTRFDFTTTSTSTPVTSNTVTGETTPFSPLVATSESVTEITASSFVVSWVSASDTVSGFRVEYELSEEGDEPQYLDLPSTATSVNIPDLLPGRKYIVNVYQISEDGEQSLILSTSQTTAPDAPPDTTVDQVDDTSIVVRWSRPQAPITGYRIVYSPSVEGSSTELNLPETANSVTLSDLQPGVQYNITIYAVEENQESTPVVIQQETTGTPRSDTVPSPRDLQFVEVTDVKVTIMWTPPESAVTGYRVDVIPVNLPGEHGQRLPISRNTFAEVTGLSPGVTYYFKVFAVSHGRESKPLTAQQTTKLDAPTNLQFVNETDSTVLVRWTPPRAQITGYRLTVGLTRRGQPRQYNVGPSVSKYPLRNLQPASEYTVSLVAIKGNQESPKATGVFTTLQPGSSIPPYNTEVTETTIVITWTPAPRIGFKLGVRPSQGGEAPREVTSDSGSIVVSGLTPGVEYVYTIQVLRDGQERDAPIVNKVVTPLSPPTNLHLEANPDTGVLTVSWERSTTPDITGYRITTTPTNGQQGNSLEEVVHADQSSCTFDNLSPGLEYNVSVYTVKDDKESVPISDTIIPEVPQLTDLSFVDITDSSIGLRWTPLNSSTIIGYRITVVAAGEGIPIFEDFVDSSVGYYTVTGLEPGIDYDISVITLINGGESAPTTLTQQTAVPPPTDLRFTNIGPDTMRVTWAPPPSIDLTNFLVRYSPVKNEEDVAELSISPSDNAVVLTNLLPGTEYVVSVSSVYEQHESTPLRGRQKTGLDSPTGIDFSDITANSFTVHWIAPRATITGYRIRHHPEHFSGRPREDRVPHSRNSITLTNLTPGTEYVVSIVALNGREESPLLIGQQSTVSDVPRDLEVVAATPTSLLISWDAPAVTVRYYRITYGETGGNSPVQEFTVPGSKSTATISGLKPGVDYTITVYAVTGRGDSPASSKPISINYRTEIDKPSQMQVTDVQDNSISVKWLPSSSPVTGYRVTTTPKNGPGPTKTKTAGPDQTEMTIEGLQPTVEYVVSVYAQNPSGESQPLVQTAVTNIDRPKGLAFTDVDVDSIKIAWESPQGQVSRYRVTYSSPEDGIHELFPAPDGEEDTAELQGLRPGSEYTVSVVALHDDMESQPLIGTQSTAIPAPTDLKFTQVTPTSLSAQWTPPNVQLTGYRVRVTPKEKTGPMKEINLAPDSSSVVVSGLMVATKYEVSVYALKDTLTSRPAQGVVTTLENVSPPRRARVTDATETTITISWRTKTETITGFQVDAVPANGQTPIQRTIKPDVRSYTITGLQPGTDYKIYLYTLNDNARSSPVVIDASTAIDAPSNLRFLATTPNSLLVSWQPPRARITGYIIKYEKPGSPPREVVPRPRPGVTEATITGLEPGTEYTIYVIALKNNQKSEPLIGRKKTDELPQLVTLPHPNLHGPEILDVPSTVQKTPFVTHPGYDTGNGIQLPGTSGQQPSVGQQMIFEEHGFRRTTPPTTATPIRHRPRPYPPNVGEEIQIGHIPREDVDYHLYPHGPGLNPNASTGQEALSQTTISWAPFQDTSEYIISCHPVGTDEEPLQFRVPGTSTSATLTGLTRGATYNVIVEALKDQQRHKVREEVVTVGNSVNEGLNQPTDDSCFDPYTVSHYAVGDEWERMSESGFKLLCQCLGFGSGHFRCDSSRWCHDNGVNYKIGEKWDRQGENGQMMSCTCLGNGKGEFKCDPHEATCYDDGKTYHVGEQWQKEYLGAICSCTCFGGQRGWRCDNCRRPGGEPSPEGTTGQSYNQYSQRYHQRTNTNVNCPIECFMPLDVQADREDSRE

Row | Compound | Binding to immobilized type III collagen (type III collagen) | Binding to immobilized CRP [1] | Binding to immobilized fibrinogen (fibrinogen) | Binding to immobilized fibronectin (fibronectin) | Binding to immobilized laminin (laminin)
1 | CSCC[C@@H]1NC(=O)[C@H](C(C)C)NC(=O)[C@H](CCCNC(=N)N)NC(=O)CNC(=O)[C@@H]2CCCN2C(=O)[C@@H](NC(=O)CNC(=O)[C@H](CO)NC(=O)CNC(=O)[C@H](CO)NC(=O)CCCC[C@@H]2SC[C@@H]3NC(=O)N[C@@H]32)CSSC[C@@H](C(N)=O)NC(=O)[C@@H]2CCCN2C(=O)CNC(=O)[C@H](CCC(=O)O)NC(=O)[C@H](CC(=O)O)NC(=O)[C@H](CC(=O)O)NC(=O)CNC(=O)[C@H](CC(C)C)NC(=O)[C@H](Cc2c[nH]cn2)NC(=O)[C@H](CC(C)C)NC(=O)CNC(=O)[C@H](Cc2c[nH]cn2)NC1=O [collagelin] | bound | bound | either to be weak or not to occur at all | either to be weak or not to occur at all | consistently bound
2 | SGSGCGPQGARGLTGASAGGPC (disulfide 5-22 (inferred)) [reference compound] | did not bind | did not bind | did not bind | did not bind | did not bind
